Tested on: BDF1 spleen cells
Assay: CTL induction, PHA-P-mediated cytotoxicity assay (51Cr-labelled P815 targets), BDF1 spleen cells
Format: cell-based, mice
Details: 5 x 10³ BDF1 spleen cells
Description: Cultures and Assays: The culture medium used was Iscove's Modified Dulbecco's medium supplemented with 10% fetal bovine serum (Bocknek, Rexdale, Ontario), 5 x 10⁻⁵M 2-mercaptoethanol, 50 U/ml of Penicillin and 50 µg/ml streptomycin. All cultures were incubated at 37°C in 5% CO₂ in humid air.
For CTL assays, cultures were set up by incubating the indicated number of spleen cells, lymph node cells or thymocytes with the appropriate lymphokine in conical bottomed microtiter plates (Flow Laboratories, #76-023-05) as previously described by Teh et al, 1983, supra. Five days later the cultures were assessed for cytotoxic activity in phytohemaglutinin (PHA-P)-mediated cytotoxicity assay as described by Bevan and Cohn, J. Immunol 1975 114:559. This assay detects CTL of all specificities. A total of 3 x 10³ ⁵¹Cr-labelled P815 (H-2^d) mastocytoma target cells (available from ATCC®) and 10 µg/ml of PHA-P were added to each well. Spontaneous release during the 3.5 hr assay period was about 10% of the maximum releasable counts.

Structure (SMILES): CCCCCCCCCCCCCC(=O)O[C@@H]1[C@@H](C)[C@@]2(O)[C@@H](C=C(CO)C[C@]3(O)C(=O)C(C)=C[C@@H]23)[C@@H]2C(C)(C)[C@]12OC(C)=O [PMA, phorbol-12-myristate-13-acetate]
- % specific lysis (M SE) (PMA 0.03 ng/ml with rIL-2 20 U/ml): 3.5 ± 1.5%
- % specific lysis (M SE) (PMA 0.1 ng/ml alone): -2.2 ± 1.4%
- % specific lysis (M SE) (PMA 0.1 ng/ml with rIL-2 20 U/ml): 15.7 ± 5.1%
- % specific lysis (M SE) (PMA 0.3 ng/ml alone): -3.2 ± 1.7%
- % specific lysis (M SE) (PMA 0.3 ng/ml with rIL-2 20 U/ml): 14.8 ± 3.3%
- % specific lysis (M SE) (PMA 1.0 ng/ml alone): -2.5 ± 0.9%
- % specific lysis (M SE) (PMA 1.0 ng/ml with rIL-2 20 U/ml): 2.8 ± 1.3%
- % specific lysis (M SE) (PMA 3.0 ng/ml alone): -1.0 ± 1.8%
- % specific lysis (M SE) (PMA 3.0 ng/ml with rIL-2 20 U/ml): 4.3 ± 1.4%
- % specific lysis (M SE) (PMA 10.0 ng/ml alone): -0.9 ± 1.6%
- % specific lysis (M SE) (PMA 10.0 ng/ml with rIL-2 20 U/ml): -0.4 ± 0.9%

From patent EP0303483A2, “Novel lymphokine and compositions thereof” (THE UNIVERSITY OF BRITISH COLUMBIA, priority 1987, dated 1989)
